The record followed here is patent publication US20040229246A1, “Diagnostic markers for therapeutic treatment” (Can-Fite Biopharam Ltd., priority 2002, published 2004).

SMILES strings stand for the structures.

Test [1] concerns the target T1, A3AR (Mus musculus, UniProt Q61618).
T1 construct: endogenous in cells; host or cells: B16-F10 melanoma cells
T1 sequence (Q61618 1-319): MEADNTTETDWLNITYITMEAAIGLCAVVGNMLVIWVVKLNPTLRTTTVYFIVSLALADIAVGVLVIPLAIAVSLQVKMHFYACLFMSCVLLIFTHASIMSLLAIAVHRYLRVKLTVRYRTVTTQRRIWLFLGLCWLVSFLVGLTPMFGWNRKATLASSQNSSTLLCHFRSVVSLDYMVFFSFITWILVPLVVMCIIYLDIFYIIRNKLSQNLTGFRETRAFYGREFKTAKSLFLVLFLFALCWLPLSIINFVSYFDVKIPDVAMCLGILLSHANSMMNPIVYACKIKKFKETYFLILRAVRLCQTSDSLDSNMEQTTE
Put plainly: Western blot analysis of A3AR protein in B16-F10 melanoma cells. The format is cell-based. As to conditions: B16-F10 melanoma cells, Western blot. On the procedure:
(§1) To detect the level of expression of the A3AR proteins Western blot analysis was performed. Cells were incubated in the presence and absence of IB-MECA (10 nM), MRS1523 (10 nM), Forskolin (50 nM), 8 Br cAMP (100 μM), Cycloheximide 20 μg/ml or MG 132 (20 nM) for different time periods at 37° C. Cells were then rinsed with ice-cold PBS and transferred to ice-cold lysis buffer (TNN buffer, 50 mM Tris buffer pH=7.5, 150 mM NaCl, NP 40). In the experiment examining the effect of trypsin on A3AR expression, cells were incubated with 0.5 ml of 0.25% trypsin for 5 minutes. The trypsinized cells were washed again with ice-cold PBS, harvested by centrifugation and subjected to lysis in TNN buffer. Cell debris was removed by centrifugation for 10 minutes, at 7500 xg. The supernatant was utilized for Western Blot analysis. Protein concentrations were determined using the Bio-Rad protein assay dye reagent. Equal amounts of the sample (50 μg) were separated by SDS-PAGE, using 12% polyacrylamide gels. The resolved proteins were then electroblotted onto nitrocellulose membranes (Schleicher & Schuell, Keene, NH, USA). Membranes were blocked with 1% bovine serum albumin and incubated with the desired primary antibody (dilution 1:1000) for 24 hours at 4° C. Blots were then washed and incubated with a secondary antibody for 1 hour at room temperature. Bands were recorded using BCIP/NBT color development kit (Promega, Madison, W1, USA). Data presented in the different figures are representative of at least three different experiments.
Receptor internalization by treating melanoma cells with trypsin, which removes the cell surface receptor, was examined.
Time dependent expression of A3AR in the melanoma cells was examined by Western blot analysis.

In test [2] the test system is B16-F10 melanoma. Put plainly: B16-F10 melanoma tumor growth in mice. It is filed as in vivo. As to conditions: 100 μg/kg orally once daily, 15 days, p<0.0001. On the procedure:
(§2) Melanoma: C57BL/6J, male mice (Harlan Laboratories, Jerusalem, Israel) aged 2 months, weighing an average of 25 g were used. B16-F10 (2.5×105) melanoma cells were subcutaneously (s.c.) injected to the flank of the mice. IB-MECA at a dose of 100 μg/kg body weight was administered orally once daily, starting 24 hours after tumor cells' inoculation. The control group was treated daily, orally, with the vehicle only. Mice were sacrificed after 15 days, tumor lesions were excise and protein was extracted for measurements as described above. The tumor size (width (W) and length (L)) was measured with a caliber and calculated according to the following formula: Tumor Size =(W)2xL/2. Each group contained 15 mice and the study was repeated 3 times.
Consequently, an increase in the total GSK-3β level was noted, thereby leading to a decrease in the level of β-catenin.

The subject of test [3] is PKA, PKB/Akt, GSK-3β, β-catenin, cyclin D1, c-myc, NF-κB. Description: Western blot of cell growth regulatory proteins in B16-F10 melanoma tumor lesions. It is filed as in vivo, mice. How it is done:
as §1, §2

The test system of test [4] is A3AR, GSK-3β, cyclin D1, c-myc. Put plainly: Western blot of regulatory proteins in HCT-116 tumor lesions excised from mice. The format is in vivo. On the procedure:
as §1
Colon Carcinoma: Nude/BalbC male, 10-week-old mice were used. HCT-116 Human colon carcinoma cells (1.2×10^6 cells in 100 μL PBS) were inoculated subcutaneously to the flank of the mice. Treatment was initiated when tumors reached a size of ˜150 mm^3. Each group contained 10 mice, the control group treated with vehicle only, while the test group was administered daily orally with IB-MECA (10 μg/kg).
After 32 days the mice were sacrificed, tumor lesions were excise and protein was extracted for measurements as described above. Tumor size was evaluated by measuring with a caliber width (W) and length (L) and calculated according to the above formula.

The subject of test [5] is PKA and GSK-3β. Put plainly: Receptor functionality: Western blot of PKA and GSK-3β in B16-F10 melanoma cells. The format is cell-based. On the procedure:
as §1
To test receptor functionality, the protein expression level of PKA and GSK-3β, which are modulated downstream to A3AR activation, was examined. Functional receptor sensitization by IB-MECA was observed after 15 and 60 minutes and was manifested by decreased PKA and increased GSK-3β levels. […] Indeed, the modulatory effect of IB-MECA on PKA and GSK-3β was reversed in the presence of the above agents (FIG. 8a, 8b and 8c).

As for `CNC(=O)[C@H]1O[C@@H](n2cnc3c(NCc4cccc(I)c4)ncnc32)[C@H](O)[C@@H]1O` [IB-MECA, 1-deoxy-1-[6[[(3-iodophenyl)methyl]amino]-9H-purine-9-yl]-N-methyl-β-D-ribofura-nuronaminde], the “time dependent expression of A3AR” value in test [1] (different time points) was “sinusoidal pattern”. In addition, the A3AR protein level result in test [1] (versus untreated cells) is recorded as “down-regulated”. Further, in test [2], the “inhibition of B16-F10 melanoma tumor growth” value came out at 76%. Further, in test [3], the NF-κB level entry is recorded as “down-regulated”, the PKA level entry was “decreased”, the PKB/Akt level entry is “decreased” and the c-myc level result is reported as “down-regulated”. Moreover, in test [3], the “cyclin D1 level” value is given as “down-regulated”, the “total GSK-3β level” value is listed as “increase” and the β-catenin level entry was “decrease”. Also, in test [4], the A3AR level entry is on record as “down-regulation”, the GSK-3β expression level entry was “up-regulation”, the c-myc level entry is “decrease” and the “cyclin D1 level” value is “decrease”. For the same molecule, in test [5] (after 15 and 60 minutes), the GSK-3β level result is “increased” and the PKA level entry is recorded as “decreased”. Also, in test [5] (at 30 minutes), the GSK-3β level result is “only slightly increased” and the PKA level entry is “stabilized”.
